From patent US20110312992A1, “Inhibitors of C-Kit and Uses Thereof” (priority 2006, published 2011)
Counter-ions that a name gives are not always drawn.

How the values were obtained:
c-Kit = c-Kit (Homo sapiens, UniProt P10721); experiment: c-Kit kinase enzymatic assay (tyrosine phosphorylation, UpState protocol); assay type: biochemical; conditions: FIG. 5
Procedure: IC50 values were determined for compounds of Examples 1, 10, 12 and 13 using a c-Kit kinase enzymatic assay. Phosphorylation of tyrosine was measured using a kinase assay protocol as provided by UpState Cell Signaling Solutions (Lake Placid, N.Y.). […] The results of the kinase assays validate the modeling and assessment of the structure/activity relationship data.

OCI/AML3 [1] = experiment: MTT-based cell proliferation/toxicity assay, OCI/AML3; design: species or system human; conditions: for ability to reduce cell line (dose response): OCI/AML3, FIG. 25
Description: (§1) An MTT- (3,(4,5-dimethylthiazol-2-yl)-5-(3-carboxymethoxyphenyl)-2-(4-sulfophenyl)-2H-tetrazolium) based cell proliferation/toxicity assay system (Promega, Madison, Wis.) using cell lines, including the AML cell lines OCIM2 and OCI/AML3, was used to evaluate the effectiveness of the compounds as set forth herein in inhibition of c-Kit cellular activity.
(§2) AML cell lines OCIM2 and OCI/AML3 are human erythroleukemia lines and were provided by M. D. Minden, (Ontario Cancer Institute, Toronto, ON, Canada and as referenced in: Papayannopoulou et al., Blood (1988) 72:1029-1038; Wang et al., Leukemia (1989) 3: 236-249). Cells were maintained in RPMI 1640 culture medium (GIBCO, Grand Island, N.Y.) supplemented with 10% FCS (Flow Laboratories, McLean, Va.) and split twice weekly.
(§3) Briefly, cells were harvested at the logarithmic phase of their growth. They were then washed twice in RPMI 1640 containing 10% FCS and counted in a hemocytometer, and their viability was determined using 0.1% trypan blue staining. Equal numbers of viable cells (5×10^4 cells per well) were incubated in RPMI 1640 medium supplemented with 10% FCS alone or with the candidate drugs at increasing concentrations; the incubations were continued for 72 h in 96-well flat-bottomed plates (Linbro; Flow Laboratories, McLean, Va.) at 37° C. in a humidified 5% CO2 atmosphere. After incubation, 20 μl of CellTiter96 One Solution Reagent (Promega) was added to each well. The plates were then incubated for an additional 60 min at 37° C. in a humidified 5% CO2 atmosphere. Immediately after incubation, absorbance was read using a 96-well plate reader at a wavelength of 490 nm. Each data point was determined six times before analysis.
(§4) While OCIM2 and OCI/AML3 are both AML cell lines, c-Kit is expressed to a much higher degree in the OCI/AML3 line versus OCIM2, as determined by the responsiveness to stem cell factor (SCF), which mediates c-Kit receptor dimerization, activation, and autophosphorylation (Blume-Jensen, et al., (1991) EMBO Journal 10, 4121-8).

OCIM2 = experiment: MTT-based cell proliferation/toxicity assay, OCIM2; design: species or system human
Description: as §1, §2, §3, §4

HCM1.2 cell line = experiment: Systemic mastocytosis cell line with mutated c-Kit (position 816); assay type: cell-based; conditions: HCM1.2 (mutated c-Kit, position 816) vs HCM1.1 (wild-type), FIG. 12 and 13
Procedure: The effect of compound 1-[3-(4-fluoro)-1H-pyrazolo[3,4-b]pyridin-6-yl]-3,5-dimethoxy]benzene on two systemic mastocytosis cell lines with unmutated (wild-type) c-Kit (HCM1.1 cell line) and a cell line with mutated c-Kit (mutation at position 816) (HCM1.2 cell line) was also determined. Cell lines were obtained from Dr. Verstovsek (Leuk Res. 2006 Jun. 22, online prepublication).

OCI/AML3 [2] = experiment: Cell cycle analysis in OCI/AML3; assay type: cell-based, human; conditions: OCI/AML3, FIG. 15
OCI/AML3 [3] = experiment: Colony-forming cell proliferation, OCI/AML3; assay type: cell-based, human; conditions: OCI/AML3, FIG. 18
AML5 = experiment: Inhibition of cell proliferation of AML1-AML6 in the presence of SCF; assay type: cell-based; conditions: AML5 among AML1-AML6, in the presence of SCF, FIG. 23
[4] = Inhibition of cell proliferation in the absence and presence of SCF (FIG. 22); assay type: cell-based; conditions: absence vs presence of externally introduced SCF

Chain of c-Kit (P10721 26-976): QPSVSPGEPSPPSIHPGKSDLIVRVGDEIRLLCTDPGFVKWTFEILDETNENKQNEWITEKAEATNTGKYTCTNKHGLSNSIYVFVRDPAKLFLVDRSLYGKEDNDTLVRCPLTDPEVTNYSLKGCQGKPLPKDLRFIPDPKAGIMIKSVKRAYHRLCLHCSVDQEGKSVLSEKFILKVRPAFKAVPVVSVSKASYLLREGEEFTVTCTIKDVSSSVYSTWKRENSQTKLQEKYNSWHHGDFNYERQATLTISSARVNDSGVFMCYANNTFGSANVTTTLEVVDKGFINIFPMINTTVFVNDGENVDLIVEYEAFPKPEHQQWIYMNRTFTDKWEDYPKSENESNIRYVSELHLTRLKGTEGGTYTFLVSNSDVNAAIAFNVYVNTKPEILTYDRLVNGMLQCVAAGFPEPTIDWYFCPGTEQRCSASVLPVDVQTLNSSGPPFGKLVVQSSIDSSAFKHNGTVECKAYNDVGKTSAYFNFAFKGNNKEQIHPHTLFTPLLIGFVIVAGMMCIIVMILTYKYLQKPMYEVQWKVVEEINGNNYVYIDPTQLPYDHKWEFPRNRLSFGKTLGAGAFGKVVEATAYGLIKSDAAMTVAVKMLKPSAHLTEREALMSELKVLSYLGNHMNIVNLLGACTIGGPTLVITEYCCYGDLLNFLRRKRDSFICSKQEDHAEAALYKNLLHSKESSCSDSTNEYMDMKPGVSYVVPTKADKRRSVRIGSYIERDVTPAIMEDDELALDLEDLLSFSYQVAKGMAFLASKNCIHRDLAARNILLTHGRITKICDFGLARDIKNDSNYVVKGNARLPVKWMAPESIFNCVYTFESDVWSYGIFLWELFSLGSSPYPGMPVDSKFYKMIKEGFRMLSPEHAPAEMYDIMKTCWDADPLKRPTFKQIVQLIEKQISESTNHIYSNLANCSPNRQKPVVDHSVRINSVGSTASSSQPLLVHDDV

CCOC(=O)c1ccc(-c2n[nH]c3nc(-c4ccc(C(=O)NCCN(C)C)cc4)ccc23)cc1 [Example 13]
IC50 (c-Kit): ~3600 nM | ability to reduce cell line (dose response) (OCI/AML3 [1]): same effective ability to reduce OCI/AML3 cell line

CC(=O)Nc1cccc(-c2ccc3c(-c4ccc(F)cc4)n[nH]c3n2)c1 [Example 3, 3-[3-(4-Fluorophenyl)-1H-pyrazolo[3,4-b]pyridin-6-yl]acetanilide]
ability to reduce cell line (dose response) (OCI/AML3 [1]): same effective ability to reduce OCI/AML3 cell line

COc1ccc(-c2n[nH]c3nc(-c4cc(OC)cc(OC)c4)ccc23)cc1 [Example 12]
IC50 (c-Kit): ~1200 nM | ability to reduce cell line (dose response) (OCI/AML3 [1]): same effective ability to reduce OCI/AML3 cell line

Cc1ccc(NC(=O)c2ccc(CN3CCN(C)CC3)cc2)cc1Nc1nccc(-c2cccnc2)n1 [imatinib mesylate, reference compound]
response of cell line to prior art compound (OCI/AML3 [1]; OCI-AML3 expressing c-Kit, FIG. 6 / FIG. 10): resistant | response of cell line to prior art compound (OCIM2; OCIM2 uninduced, FIG. 10): resistant

COc1ccc(-c2n[nH]c3nc(-c4cccc(NC(C)=O)c4)ccc23)cc1 [Example 1, 3-{(4-Methyloxyphenyl)-1H-pyrazolo[4,3-b]pyridin-6-yl}acetanilide]
IC50 (c-Kit): ~95 nM | EC50 (OCI/AML3 [1]; Homo sapiens, OCI-AML-3, cell viability, OCI/AML3, 72 h, FIG. 6): ~100 nM | ability to reduce cell line (dose response) (OCI/AML3 [1]): same effective ability to reduce OCI/AML3 cell line

COc1cc(OC)cc(-c2ccc3c(-c4ccc(F)cc4)n[nH]c3n2)c1 [Example 10]
IC50 (c-Kit): > 100000 nM | sensitivity of proliferation (OCI/AML3 [1]; OCI/AML3, FIG. 16): quite sensitive | comparison with BMS-354825 and Gleevec (OCI/AML3 [1]; percent of control, FIG. 24): favorable comparison | sensitivity of proliferation (OCIM2; OCIM2, FIG. 16): less sensitive | proliferation of SCF-stimulated cells (OCIM2; OCIM2 with and without 50 ng/mL SCF, FIG. 9): inhibiting the proliferation | selectivity between mastocytosis cell lines (HCM1.2 cell line): selectivity for the cell line containing mutated c-Kit | cell cycle effect (OCI/AML3 [2]): causes the accumulation of OCI/AML3 in Sub-G0 phase | colony-forming cell proliferation (OCI/AML3 [3]): inhibits | inhibition of cell proliferation (AML5): less effective inhibition | effect of SCF on inhibition of cell proliferation [4]: enhanced by the presence of externally introduced SCF
